Type in all cases: biochemical
One test deals with T1, human Yes1 enzyme (Homo sapiens, UniProt P07947).
T1 construct: made in house
In words: Yes1 enzyme inhibitory activity (time-resolved fluorometry, biotinylated peptide phosphorylation). The following applies: read-out: YES_IC50. A digest of the protocol:
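Inhibition was expressed against a compound-free control to give IC50, using TR-FRET read-out (Eu-cryptate anti-pTyr antibody, streptavidin-XL665).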

For another test, the target named is T2, human Src enzyme (Homo sapiens, UniProt P12931).
T2 construct: purchased Carna Biosciences, Inc. 08-173
T2 sequence (P12931 whole entry): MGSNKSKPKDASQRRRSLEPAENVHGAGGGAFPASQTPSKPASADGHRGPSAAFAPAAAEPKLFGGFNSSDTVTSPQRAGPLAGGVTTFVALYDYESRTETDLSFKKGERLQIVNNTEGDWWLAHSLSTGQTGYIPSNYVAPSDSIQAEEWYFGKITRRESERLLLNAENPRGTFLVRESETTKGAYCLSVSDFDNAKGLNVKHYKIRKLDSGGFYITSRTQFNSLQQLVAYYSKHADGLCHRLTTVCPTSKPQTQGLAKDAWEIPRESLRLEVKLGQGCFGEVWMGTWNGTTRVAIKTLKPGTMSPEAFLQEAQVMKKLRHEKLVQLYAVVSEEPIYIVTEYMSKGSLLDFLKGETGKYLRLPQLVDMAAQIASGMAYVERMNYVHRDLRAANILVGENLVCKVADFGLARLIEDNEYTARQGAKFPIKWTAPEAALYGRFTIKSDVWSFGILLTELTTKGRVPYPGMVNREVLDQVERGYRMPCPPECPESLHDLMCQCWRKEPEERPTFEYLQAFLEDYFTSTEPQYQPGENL
In words: Src enzyme inhibitory activity (time-resolved fluorometry, biotinylated peptide phosphorylation). The following applies: read-out: SRC_IC50. A digest of the protocol:
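Compounds were tested for blocking tyrosine phosphorylation of a biotinylated peptide substrate by recombinant human Src. Phosphorylated product was quantified by time-resolved fluorometry using europium cryptate and XL665 conjugates, and IC50 was calculated against the compound-free control.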

Another test has as its target T3, human Lck enzyme (Homo sapiens, UniProt P06239).
T3 construct: purchased Carna Biosciences, Inc. 08-170
In words: Lck enzyme inhibitory activity (time-resolved fluorometry, biotinylated peptide phosphorylation). Conditions: read-out: LCK_IC50. The procedure, abridged: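 Readout pairs a europium cryptate-labelled anti-phosphotyrosine antibody with XL665-streptavidin, measured by time-resolved fluorescence. IC50 derived from percent inhibition against untreated controls.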

Where [1] appears, read: biotinylated peptide phosphorylation.

Read-outs that look alike come from different tables or passages of the source.

The values below come from US10479780B2, “Aminopyrazole derivatives” (Chugai Seiyaku Kabushiki Kaisha, priority 2015, dated 2019).

T3 sequence (P06239 whole entry): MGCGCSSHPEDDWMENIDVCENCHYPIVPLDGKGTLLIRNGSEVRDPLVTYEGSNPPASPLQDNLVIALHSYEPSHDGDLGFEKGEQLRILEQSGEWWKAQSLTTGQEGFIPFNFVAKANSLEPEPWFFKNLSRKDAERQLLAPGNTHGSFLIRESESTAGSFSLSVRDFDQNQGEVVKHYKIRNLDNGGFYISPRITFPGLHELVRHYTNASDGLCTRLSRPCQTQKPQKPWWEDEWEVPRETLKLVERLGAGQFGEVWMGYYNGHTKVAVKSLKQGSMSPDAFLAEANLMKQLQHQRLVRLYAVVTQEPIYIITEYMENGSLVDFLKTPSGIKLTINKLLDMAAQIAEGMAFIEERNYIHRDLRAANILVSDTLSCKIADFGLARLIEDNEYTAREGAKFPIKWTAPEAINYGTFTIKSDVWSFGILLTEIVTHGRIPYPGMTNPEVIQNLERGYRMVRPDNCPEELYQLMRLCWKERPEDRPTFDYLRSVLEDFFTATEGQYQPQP
T1 sequence (P07947 whole entry): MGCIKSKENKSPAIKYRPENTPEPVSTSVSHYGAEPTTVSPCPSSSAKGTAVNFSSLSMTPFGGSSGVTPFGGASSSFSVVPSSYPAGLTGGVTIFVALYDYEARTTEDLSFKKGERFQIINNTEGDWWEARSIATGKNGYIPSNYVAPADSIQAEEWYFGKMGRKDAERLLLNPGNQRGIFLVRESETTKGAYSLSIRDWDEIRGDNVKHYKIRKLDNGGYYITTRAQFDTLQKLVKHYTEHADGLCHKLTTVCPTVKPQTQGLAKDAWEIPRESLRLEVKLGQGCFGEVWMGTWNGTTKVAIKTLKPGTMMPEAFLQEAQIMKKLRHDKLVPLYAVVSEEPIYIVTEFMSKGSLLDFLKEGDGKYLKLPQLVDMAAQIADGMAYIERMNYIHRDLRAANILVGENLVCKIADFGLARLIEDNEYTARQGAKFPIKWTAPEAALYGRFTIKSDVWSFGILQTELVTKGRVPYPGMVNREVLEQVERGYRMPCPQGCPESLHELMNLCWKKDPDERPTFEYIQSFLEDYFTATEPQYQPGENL

Regarding `Cc1cc2cc(C(=O)c3cnn(-c4ccc(Oc5ncccc5Cl)cc4Cl)c3N)[nH]c2cc1N1CCCS1(=O)=O` [Example 5-1-062, [5-amino-1-[2-chloro-4-(3-chloropyridin-2-yl)oxyphenyl]pyrazol-4-yl]-[6-(1,1-dioxo-1,2-thiazolidin-2-yl)-5-methyl-1H-indol-2-yl] methanone], the IC50 came out at 2.4 nM on human Yes1 enzyme, 48 nM on human Src enzyme and 13 nM on human Lck enzyme.

As for `Cc1cc(Oc2ccccc2F)ccc1-n1ncc(C(=O)c2cc3cc(OCC(F)F)c(N4C(=O)[C@@H]5C[C@H](NS(=O)(=O)CCCF)CN5C4=O)cc3[nH]2)c1N` [Example 5-1-255, N-[(6S,7aS)-2-[2-[5-amino-1-[4-(2-fluorophenoxy)-2-methylphenyl]pyrazole-4-carbonyl]-5-(2,2-difluoroethoxy)-1H-indol-6-yl]-1,3-dioxo-5,6,7,7a-tetrahydropyrrolo[1,2-c]imidazol-6-yl]-3-fluoropropane-1-sulfonamide], the IC50 is 1.1 nM at human Yes1 enzyme, 8.9 nM at human Src enzyme and 4.5 nM at human Lck enzyme.

`Cc1cc(-n2ncc(C(=O)c3cc4cc(OC5CCN(C(C)C)CC5)c(-c5cncnc5)cc4[nH]3)c2N)ccc1Oc1ccccc1F` [Example 5-1-240, [5-amino-1-[4-(2-fluorophenoxy)-3-methylphenyl]pyrazol-4-yl]-[5-(1-propan-2-ylpiperidin-4-yl)oxy-6-pyrimidin-5-yl-1H-indol-2-yl]methanone]: the results for the IC50 on human Yes1 enzyme, at human Src enzyme and on human Lck enzyme were 2 nM, 75 nM and 19 nM, respectively.

Take `Cc1cc(Oc2ccccc2F)ccc1-n1ncc(C(=O)c2cc3cc(OCC(F)F)c(NS(=O)(=O)c4cccnc4)cc3[nH]2)c1N` [Example 5-1-418, N-[2-[5-amino-1-[4-(2-fluorophenoxy)-2-methylphenyl]pyrazole-4-carbonyl]-5-(2,2-difluoroethoxy)-1H-indol-6-yl]pyridine-3-sulfonamide]: the IC50 worked out at 1.4 nM at human Yes1 enzyme (setting [1]), 78 nM at human Src enzyme (setting [1]) and 21 nM at human Lck enzyme (setting [1]).

`Cc1cc(Oc2ccccc2F)cc(F)c1-n1ncc(C(=O)c2cc3cc(OC(F)F)c(NS(C)(=O)=O)cc3[nH]2)c1N` [Example 5-1-076, N-[2-[5-amino-1-[2-fluoro-4-(2-fluorophenoxy)-6-methylphenyl]pyrazole-4-carbonyl]-5-(difluoromethoxy)-1H-indol-6-yl] methanesulfonamine]: the IC50 at human Yes1 enzyme is 2.8 nM; on human Src enzyme, 120 nM; at human Lck enzyme, 16 nM.

For `Cc1cc(Oc2ccccc2F)ccc1-n1ncc(C(=O)c2cc3cc(OC(F)F)c(NC4COC4)cc3[nH]2)c1N` [Example 4-23-009, [5-amino-1-[4-(2-fluorophenoxy)-2-methylphenyl]pyrazol-4-yl]-[5-(difluoromethoxy)-6-(oxetan-3-ylamino)-1H-indol-2-yl]methanone], the IC50 at human Yes1 enzyme (setting [1]) worked out at 3.2 nM; at human Src enzyme (setting [1]), 22 nM; on human Lck enzyme (setting [1]), 8.9 nM.

With `Cc1cc(-n2ncc(C(=O)c3cc4cc(OC5CCN(C(C)C)CC5)c(N5CCOCC5)cc4[nH]3)c2N)ccc1Oc1ccccc1F` [Example 5-1-174, (5-amino-1-(4-(2-fluorophenoxy)-3-methylphenyl)-1H-pyrazol-4-yl)(5-((1-isopropylpiperidin-4-yl)oxy)-6-morpholino-1H-indol-2-yl)methanone], the results for the IC50 at human Yes1 enzyme, on human Src enzyme and at human Lck enzyme were 0.56 nM, 46 nM and 4.5 nM, respectively.

As to `Cc1cc(Oc2ccccc2F)cc(F)c1-n1ncc(C(=O)c2cc3cc(NS(C)(=O)=O)c(F)cc3[nH]2)c1N` [Example 4-2-099, N-[2-[5-amino-1-[2-fluoro-4-(2-fluorophenoxy)-6-methylphenyl]pyrazole-4-carbonyl]-6-fluoro-1H-indol-5-yl]methanesulfonamide], the IC50 at human Yes1 enzyme (setting [1]) was determined as 0.61 nM; at human Src enzyme (setting [1]), 15 nM; at human Lck enzyme (setting [1]), 2.8 nM.

For the molecule `Cc1cc(Oc2c(F)cccc2F)ncc1-n1ncc(C(=O)c2cc3cc(F)c(NS(=O)(=O)c4cccnc4)cc3[nH]2)c1N` [Example 5-1-491, N-[2-[5-amino-1-[6-(2,6-difluorophenoxy)-4-methylpyridin-3-yl]pyrazole-4-carbonyl]-5-fluoro-1H-indol-6-yl]pyridine-3-sulfonamide], the IC50 at human Yes1 enzyme (setting [1]) is 4.9 nM; on human Src enzyme (setting [1]), 400 nM; on human Lck enzyme (setting [1]) it was 100 nM.

Regarding `Nc1c(C(=O)c2cc3cc(F)c(NS(=O)(=O)C4CC4)cc3[nH]2)cnn1-c1c(Cl)cc(Oc2cccc(F)c2F)cc1Cl` [Example 5-1-026, N-[2-[5-amino-1-[2,6-dichloro-4-(2,3-difluorophenoxy)phenyl]pyrazole-4-carbonyl]-5-fluoro-1H-indol-6-yl] cyclopropanesulfonamide], the IC50 came to 64 nM at human Yes1 enzyme, 660 nM on human Src enzyme and 390 nM at human Lck enzyme.

As for `Cc1cc(Oc2ccccc2F)cc(F)c1-n1ncc(C(=O)c2cc3cc(OCC(F)F)c(NS(=O)(=O)CCCF)cc3[nH]2)c1N` [Example 4-24-026, N-[2-[5-amino-1-[2-fluoro-4-(2-fluorophenoxy)-6-methylphenyl]pyrazole-4-carbonyl]-5-(2,2-difluoroethoxy)-1H-indol-6-yl]-3-fluoropropane-1-sulfonamide], the IC50 at human Yes1 enzyme (setting [1]) was determined as 1.7 nM; on human Src enzyme (setting [1]) it was 50 nM; at human Lck enzyme (setting [1]) it was 21 nM.

Turning to `Cc1cc(Oc2c(F)cccc2F)ncc1-n1ncc(C(=O)c2cc3cc(OC4CCN(C(C)C)CC4)c(-c4cncnc4)cc3[nH]2)c1N` [Example 5-1-241, [5-amino-1-[6-(2,6-difluorophenoxy)-4-methylpyridin-3-yl]pyrazol-4-yl]-[5-(1-propan-2-ylpiperidin-4-yl)oxy-6-pyrimidin-5-yl-1H-indol-2-yl]methanone], the IC50 at human Yes1 enzyme turned out to be 1.8 nM; at human Src enzyme, 5.5 nM; on human Lck enzyme, 6.1 nM.

Turning to `Cc1cc(Oc2c(F)cccc2F)ncc1-n1ncc(C(=O)c2cc3cc(F)c(N4CCOCC4)cc3[nH]2)c1N` [Example 5-1-100, [5-amino-1-[6-(2,6-difluorophenoxy)-4-methylpyridin-3-yl]pyrazol-4-yl]-(5-fluoro-6-morpholin-4-yl-1H-indol-2-yl)methanone], the results for the IC50 on human Yes1 enzyme, at human Src enzyme and on human Lck enzyme were 1.6 nM, 8.7 nM and 1.3 nM, respectively.

As to `Cc1cc(-n2ncc(C(=O)c3cc4cc(OC5CCN(C(C)C)CC5)c(C5CCN(S(C)(=O)=O)CC5)cc4[nH]3)c2N)ccc1Oc1ccccc1F` [Example 5-1-230, [5-amino-1-[4-(2-fluorophenoxy)-3-methylphenyl]pyrazol-4-yl]-[6-(1-methylsulfonylpiperidin-4-yl)-5-(1-propan-2-ylpiperidin-4-yl)oxy-1H-indol-2-yl]methanone], the IC50 amounted to 0.68 nM on human Yes1 enzyme, 95 nM at human Src enzyme and 7 nM on human Lck enzyme.

On to `Cc1cc2cc(C(=O)c3cnn(-c4cnc(Oc5c(F)cccc5F)cc4C)c3N)[nH]c2cc1NS(=O)(=O)CC(=O)NC(C)C` [Example 5-1-136, 2-[[2-[5-amino-1-[6-(2,6-difluorophenoxy)-4-methylpyridin-3-yl]pyrazole-4-carbonyl]-5-methyl-1H-indol-6-yl]sulfamoyl]-N-propan-2-ylacetamide], for which the IC50 at human Yes1 enzyme was determined as 1.5 nM; on human Src enzyme, 27 nM; at human Lck enzyme it was 23 nM.
